Laboratory results taken from the Kinase Knowledgebase extract (Sharma et al. 2016).

Columns and labels:
PIK3CG (human) [1] = molecular target: PIK3CG (human) (UniProt P48736); experiment: Enzyme Assay
PIK3CD (Human) [2] = molecular target: PIK3CD (Human) (UniProt O00329); experiment: Enzyme Assay
PIK3CA (human) [3] = molecular target: PIK3CA (human) (UniProt P42336); experiment: Enzyme Assay
PIK3CG (human) [4] = molecular target: PIK3CG (human) (UniProt P48736); experiment: Cell-Based Assay; settings: u937
PIK3CD (Human) [5] = molecular target: PIK3CD (Human) (UniProt O00329); experiment: Cell-Based Assay; settings: rat-1
PIK3CA (human) [6] = molecular target: PIK3CA (human) (UniProt P42336); experiment: Cell-Based Assay; settings: rat-1

Sequence of PIK3CA (human) (P42336 whole entry, looked up): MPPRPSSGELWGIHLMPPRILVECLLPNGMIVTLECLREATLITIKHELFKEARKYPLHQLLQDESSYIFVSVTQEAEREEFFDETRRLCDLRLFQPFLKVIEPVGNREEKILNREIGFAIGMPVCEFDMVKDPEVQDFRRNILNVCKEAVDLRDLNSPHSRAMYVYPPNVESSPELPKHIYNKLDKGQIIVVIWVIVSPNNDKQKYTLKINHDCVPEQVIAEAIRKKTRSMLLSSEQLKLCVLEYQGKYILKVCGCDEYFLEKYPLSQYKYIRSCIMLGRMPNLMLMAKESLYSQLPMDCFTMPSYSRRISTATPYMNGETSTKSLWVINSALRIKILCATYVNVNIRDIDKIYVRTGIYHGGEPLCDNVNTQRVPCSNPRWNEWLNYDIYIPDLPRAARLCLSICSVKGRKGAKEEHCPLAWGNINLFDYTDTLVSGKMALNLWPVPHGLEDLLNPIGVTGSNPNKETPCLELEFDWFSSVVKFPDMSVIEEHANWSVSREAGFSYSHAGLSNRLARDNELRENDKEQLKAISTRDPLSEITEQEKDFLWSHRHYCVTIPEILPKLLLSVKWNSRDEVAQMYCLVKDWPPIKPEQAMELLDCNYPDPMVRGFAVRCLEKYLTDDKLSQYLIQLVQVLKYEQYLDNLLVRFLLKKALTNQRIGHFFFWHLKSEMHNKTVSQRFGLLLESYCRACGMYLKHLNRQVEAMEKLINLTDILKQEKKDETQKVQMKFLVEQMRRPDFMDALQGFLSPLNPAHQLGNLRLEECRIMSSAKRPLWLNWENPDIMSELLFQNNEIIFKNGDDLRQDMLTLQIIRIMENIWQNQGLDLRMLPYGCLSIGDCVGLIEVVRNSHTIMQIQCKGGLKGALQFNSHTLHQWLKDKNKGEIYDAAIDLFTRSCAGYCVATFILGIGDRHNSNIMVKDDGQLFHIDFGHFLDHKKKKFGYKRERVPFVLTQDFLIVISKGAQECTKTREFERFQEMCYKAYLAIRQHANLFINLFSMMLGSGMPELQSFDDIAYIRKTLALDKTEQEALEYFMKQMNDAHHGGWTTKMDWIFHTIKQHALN
Sequence of PIK3CG (human) (P48736 whole entry, looked up): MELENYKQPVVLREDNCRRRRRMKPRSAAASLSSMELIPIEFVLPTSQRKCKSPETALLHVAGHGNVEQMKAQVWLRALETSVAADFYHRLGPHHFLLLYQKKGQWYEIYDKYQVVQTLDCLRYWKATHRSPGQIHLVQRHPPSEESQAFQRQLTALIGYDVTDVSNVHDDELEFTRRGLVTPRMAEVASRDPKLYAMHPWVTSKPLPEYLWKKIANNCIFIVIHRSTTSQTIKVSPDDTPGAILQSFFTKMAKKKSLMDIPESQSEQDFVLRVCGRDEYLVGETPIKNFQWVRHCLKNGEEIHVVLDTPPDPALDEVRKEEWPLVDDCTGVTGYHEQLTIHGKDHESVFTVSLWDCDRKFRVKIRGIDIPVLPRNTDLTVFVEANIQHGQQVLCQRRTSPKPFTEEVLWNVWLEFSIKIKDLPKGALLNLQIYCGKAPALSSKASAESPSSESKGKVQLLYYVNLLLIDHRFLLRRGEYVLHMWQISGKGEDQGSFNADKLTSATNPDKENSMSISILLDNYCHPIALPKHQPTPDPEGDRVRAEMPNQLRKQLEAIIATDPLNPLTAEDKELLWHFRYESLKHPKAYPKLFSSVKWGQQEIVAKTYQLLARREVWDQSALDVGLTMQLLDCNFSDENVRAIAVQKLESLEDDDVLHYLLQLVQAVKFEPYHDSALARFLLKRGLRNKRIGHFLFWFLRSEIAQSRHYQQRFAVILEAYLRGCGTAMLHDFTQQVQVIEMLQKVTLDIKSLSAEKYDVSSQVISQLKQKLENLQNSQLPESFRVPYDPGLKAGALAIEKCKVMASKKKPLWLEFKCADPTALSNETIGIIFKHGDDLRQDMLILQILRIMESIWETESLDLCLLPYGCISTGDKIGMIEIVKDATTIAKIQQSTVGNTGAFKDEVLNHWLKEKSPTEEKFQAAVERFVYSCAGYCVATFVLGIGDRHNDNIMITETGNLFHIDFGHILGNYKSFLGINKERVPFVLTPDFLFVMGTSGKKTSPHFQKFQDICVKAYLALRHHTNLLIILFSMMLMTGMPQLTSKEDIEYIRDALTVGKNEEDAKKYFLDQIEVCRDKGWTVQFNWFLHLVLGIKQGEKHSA
Sequence of PIK3CD (Human) (O00329 whole entry, looked up): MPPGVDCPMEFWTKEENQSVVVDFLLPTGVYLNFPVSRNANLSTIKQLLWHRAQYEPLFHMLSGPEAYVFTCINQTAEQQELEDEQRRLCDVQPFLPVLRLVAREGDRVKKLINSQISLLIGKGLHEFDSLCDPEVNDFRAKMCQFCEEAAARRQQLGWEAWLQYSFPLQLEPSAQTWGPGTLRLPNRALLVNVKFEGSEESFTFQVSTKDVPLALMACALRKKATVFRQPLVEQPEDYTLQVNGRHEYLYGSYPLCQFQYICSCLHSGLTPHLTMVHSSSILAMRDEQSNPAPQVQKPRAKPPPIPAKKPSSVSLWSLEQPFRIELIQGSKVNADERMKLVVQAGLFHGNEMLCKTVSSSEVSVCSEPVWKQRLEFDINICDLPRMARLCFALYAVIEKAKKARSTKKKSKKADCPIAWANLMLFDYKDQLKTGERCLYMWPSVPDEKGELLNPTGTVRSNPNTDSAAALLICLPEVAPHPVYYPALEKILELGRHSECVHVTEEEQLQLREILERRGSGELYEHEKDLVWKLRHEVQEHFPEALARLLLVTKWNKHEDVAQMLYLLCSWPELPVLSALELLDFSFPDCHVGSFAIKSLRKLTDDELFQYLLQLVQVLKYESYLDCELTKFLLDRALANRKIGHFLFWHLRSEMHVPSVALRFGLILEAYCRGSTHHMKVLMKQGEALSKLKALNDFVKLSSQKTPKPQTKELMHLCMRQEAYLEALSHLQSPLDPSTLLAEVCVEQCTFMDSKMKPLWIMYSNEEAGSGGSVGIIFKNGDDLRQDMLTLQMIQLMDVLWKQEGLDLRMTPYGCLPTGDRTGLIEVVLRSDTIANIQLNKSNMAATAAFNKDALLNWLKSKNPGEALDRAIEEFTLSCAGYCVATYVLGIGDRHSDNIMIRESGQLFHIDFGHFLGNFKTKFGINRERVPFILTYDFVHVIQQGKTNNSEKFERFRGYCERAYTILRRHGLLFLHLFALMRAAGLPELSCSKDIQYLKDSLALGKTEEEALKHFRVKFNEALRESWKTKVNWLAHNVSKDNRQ

Compound | IC50 (PIK3CG (human) [1]) [nM] | IC50 (PIK3CD (Human) [2]) [nM] | IC50 (PIK3CA (human) [3]) [nM] | IC50 (PIK3CG (human) [4]) [nM] | IC50 (PIK3CD (Human) [5]) [nM] | IC50 (PIK3CA (human) [6]) [nM]
N#Cc1c(C(F)F)nc(N)nc1N1C[C@@H](O)C[C@H]1c1nc2cccc(C(F)(F)F)c2c(=O)n1-c1ccccc1 | 58 | 220 | > 10000 | 187 | 517 | > 10000
O=c1c2c(Cl)cccc2nc([C@@H]2C[C@H](OC(F)F)CN2c2ncnc3[nH]cnc23)n1-c1ccccc1 | 34 | 5 | 620 | 117 | 17 | > 10000
Cc1nc(N)nc(N2C[C@@H](O)C[C@H]2c2nc3cccc(C(F)(F)F)c3c(=O)n2N2CCOCC2)c1C#N | 100 | 66 | 2000 | 83 | 92 | 4590
Nc1nc(N2CCC[C@H]2c2nc3cccc(Cl)c3c(=O)n2-c2ccccc2)c2ncsc2n1 | 19 | 10 | 350 | 59 | < 3 | > 10000
CS(=O)(=O)c1cccc2nc([C@@H]3CCCN3c3ncnc(N)c3C#N)n(-c3ccccc3)c(=O)c12 | 1200 | 7 | 5100 | 821 | 38 | 4600
N#Cc1c(N)ncnc1N1CCC[C@H]1c1nc2cccc(C(F)(F)F)c2c(=O)n1-c1ccccc1 | 140 | 12 | 2800 | 261 | 62 | > 10000
O=c1c2c(Cl)cccc2nc([C@@H]2C[C@H](O)CN2c2ncnc3[nH]cnc23)n1-c1ccccc1 | 19 | 5 | 1400 | 178 | 21 | 4310
Cc1nc(N)nc(N2C[C@@H](O)C[C@H]2c2nc3ccc(F)c(C)c3c(=O)n2-c2ccccc2)c1C#N | 24 | 14 | 270 | 18 | 7 | 1090
Cc1nc(N)nc(N2C[C@@H](F)C[C@H]2c2nc3cccc(C(F)(F)F)c3c(=O)n2-c2cccc(F)c2)c1C#N | 42 | 14 | 910 | 42 | 14 | 3410
Cn1cnc2c(N3CCC[C@H]3c3nc4cccc(Cl)c4c(=O)n3N3CCOCC3)nc(N)nc21 | 505 | 2500 | 5250 | 2360 | 476 | 
CO[C@H]1C[C@@H](c2nc3cccc(Cl)c3c(=O)n2-c2ccccc2)N(c2ncnc3[nH]cnc23)C1 | 27 | 11 | 1000 | 352 | 43 | 5480
N#Cc1cnc(N)nc1N1C[C@@H](O)C[C@H]1c1nc2cccc(C(F)(F)F)c2c(=O)n1-c1ccccc1 | 320 | 390 | 6600 | 113 | 141 | > 10000
Cc1nc(N)nc(N2C[C@@H](O)C[C@H]2c2nc3cccc(Cl)c3c(=O)n2-c2cccnc2)c1C#N | 86 | 12 | 1000 | 24 | 9 | 6240
Nc1nc(N2C[C@@H](O)C[C@H]2c2nc3cccc(C(F)(F)F)c3c(=O)n2-c2ccccc2)c2nc[nH]c2n1 | 27 | 11 | 510 | 38 | 87 | 7540
Cc1nc(N)nc(N2CCC[C@H]2c2nc3cccc(C(F)(F)F)c3c(=O)n2-c2cncnc2)c1C#N | 230 | 100 | 4200 | 306 | 295 | > 10000
CC1(n2c([C@@H]3CCCN3c3ncnc(N)c3C#N)nc3cccc(Cl)c3c2=O)CC1 | 19 | < 3 | 590 | 37 | 5 | 4230

Compound | IC50 (PIK3CG (human) [1]) [nM] | IC50 (PIK3CD (Human) [2]) [nM] | IC50 (PIK3CA (human) [3]) [nM] | IC50 (PIK3CG (human) [4]) [nM] | IC50 (PIK3CD (Human) [5]) [nM] | IC50 (PIK3CA (human) [6]) [nM]
CO[C@H]1C[C@@H](c2nc3cccc(Cl)c3c(=O)n2-c2ccccc2)N(c2ncnc(N)c2C#N)C1 | 35 | 4 | 1300 | 209 | 10 | 4040
Nc1nc(N2C[C@@H](F)C[C@H]2c2nc3cccc(C(F)(F)F)c3c(=O)n2-c2cccnc2)c2nc[nH]c2n1 | 48 | 64 | 4400 | 76 | 240 | > 10000
Cc1nc(N)nc(N2CCC[C@H]2c2nc3cccc(F)c3c(=O)n2-c2ccccc2)c1C#N | 64 | 21 | 330 | 115 | 9 | 2870
Nc1nc(N2CCC[C@H]2c2nc3cccc(C(F)(F)F)c3c(=O)n2-c2ccccc2)c2ncsc2n1 | 87 | 48 | 1700 | 40 | 110 | > 10000
Cc1nc(N)nc(N2CCC[C@H]2c2nc3cccc(S(C)(=O)=O)c3c(=O)n2-c2ccccc2)c1C#N | 75 | 13 | 1100 | 343 | 42 | 4600
N#Cc1c(N)ncnc1N1CCC[C@H]1c1nc2ccc(F)c(C(F)(F)F)c2c(=O)n1-c1ccccc1 | 500 | 13 | 4200 | 211 |  | 
Cc1nc(N)nc(N2CCC[C@H]2c2nc3ccc(F)c(C(F)(F)F)c3c(=O)n2-c2ccccc2)c1C#N | 30 | 18 | 390 | 522 |  | 
O=c1c2c(Cl)cccc2nc([C@@H]2CSCN2c2ncnc3[nH]cnc23)n1-c1ccccc1 | 202 | 18 | 2940 |  | 57 | > 10000
CO[C@H]1C[C@@H](c2nc3cccc(C(F)(F)F)c3c(=O)n2-c2ccccc2)N(c2ncnc(N)c2C#N)C1 | 460 | 18 | 7600 | 671 | 35 | 
CC1(n2c([C@@H]3CCCN3c3ncnc4[nH]cnc34)nc3cccc(Cl)c3c2=O)CC1 | 490 | 7 | 580 |  | 7 | 2150
O=c1c2c(Cl)cccc2nc([C@@H]2CCCN2c2ncnc3[nH]cnc23)n1C1CCCCC1 | 170 | 12 | > 10000 |  | 121 | > 10000
Cc1nc(N)nc(N2C[C@@H](O)C[C@H]2c2nc3cccc(C(F)(F)F)c3c(=O)n2-c2ccccc2)c1C#N | 5 | < 3 | 780 | 59 | 8 | 
CO[C@H]1C[C@@H](c2nc3cccc(C(F)(F)F)c3c(=O)n2-c2ccccc2)N(c2nc(N)nc(C)c2C#N)C1 | 107 | 24 | 2100 | 227 | 182 | 
N#Cc1c(N)ncnc1N1CCC[C@H]1c1nc2cccc(Cl)c2c(=O)n1-c1cccnc1 | 150 | 14 | 7700 |  | 12 | 4590
Cc1nc(N)nc(N2CCC[C@H]2c2nc3cccc(Cl)c3c(=O)n2C2CC2)c1C#N | 110 | 31 | 930 |  | 61 | 1160
O=c1c2c(Cl)cccc2nc([C@@H]2CSCN2c2ncnc3[nH]cnc23)n1-c1ccccc1C1CC1 | 340 | 21 | 7900 |  | 142 | 7140
